Data published in US9504756B2, “Self-stabilizing linker conjugates” (priority 2012, dated 2016).

Test: Thiosuccinimide ring hydrolysis of IgG1 conjugates monitored by electrospray mass spectrometry
Assay type: physicochemical
Settings: conjugated to reduced human IgG1; pH 7.4, 22° C.
Excerpt: The hydrolysis reaction rates of maleimido drug linkers following conjugation to antibody cysteines can be determined by mass spectrometry, as the hydrolyzed product has a molecular weight 18 daltons greater than the unhydrolyzed conjugate. Reduction of the interchain disulfides of a human IgG1 creates a single reduced cysteine on the light chain and three reduced cysteines on the heavy chain. The self-stabilizing maleimide drug-linker can then be conjugated to the reduced antibody at pH 7.4 and 22° C. and introduced to a high-resolution electrospray mass spectrometer via a reversed-phase HPLC column which separates the conjugated light and heavy chains. The masses of the conjugated light and heavy chains can thus be measured, and the peak intensities determined by standard mass spectrometry data processing software (e.g., MassLynx). By performing a series of injections over time, the disappearance of the peak corresponding to the mass of the original, unhydrolyzed conjugate and the appearance of the peak corresponding to the mass of the hydrolyzed conjugate can be monitored, the intensities of the peaks determined, and the percentage of hydrolyzed conjugate calculated at each timepoint. By plotting the hydrolysis percentage versus time, a curve is generated (e.g., using PRISM) which can be fit to a standard equation for exponential phenomena which includes a parameter for t1/2. […]

Substance: diaminopropionyl maleimide
- time for hydrolysis reaction approaching 100% completion: about 2 hours
